Reference: ChEMBL document CHEMBL4376872, “Scaffold Hopping of Natural Product Evodiamine: Discovery of a Novel Antitumor Scaffold with Excellent Potency against Colon Cancer” (J Med Chem, 2020)
Converted amounts (≈) assume the structure as drawn. The source made the active and inactive calls. The calls are words filed in the database; no cut-off is given here.

Tests used:
[1] = target: Histone-lysine N-methyltransferase EHMT2 (Homo sapiens) (UniProt Q96KQ7); assay: Inhibition of N-terminal GST-tagged recombinant human G9a (785 to 1210 residues) expressed in Escherichia coli cells using biotinylated histone H3 peptide as substrate at 5 uM incubated for 90 mins in presence of 1 uM SAM by AlphaScreen assay relative to control
[2] = target: Focal adhesion kinase 1 (Homo sapiens) (UniProt Q05397); assay: Inhibition of FAK (unknown origin) using poly (Glu, Tyr) as substrate at 5 uM incubated for 40 mins in presence of 10 uM ATP by kiase-Glo luminescence assay relative to control
[3] = target: T1, DNA topoisomerase 1 (Escherichia coli (strain K12)) (UniProt P06612); assay: Inhibition of Escherichia coli Top1 assessed as decrease in relaxation of supercoiled pBR322 plasmid DNA at 100 uM using supercoiled pBR322 plasmid DNA as substrate incubated for 15 mins by agarose gel electrophoresis analysis
T1 sequence (whole entry): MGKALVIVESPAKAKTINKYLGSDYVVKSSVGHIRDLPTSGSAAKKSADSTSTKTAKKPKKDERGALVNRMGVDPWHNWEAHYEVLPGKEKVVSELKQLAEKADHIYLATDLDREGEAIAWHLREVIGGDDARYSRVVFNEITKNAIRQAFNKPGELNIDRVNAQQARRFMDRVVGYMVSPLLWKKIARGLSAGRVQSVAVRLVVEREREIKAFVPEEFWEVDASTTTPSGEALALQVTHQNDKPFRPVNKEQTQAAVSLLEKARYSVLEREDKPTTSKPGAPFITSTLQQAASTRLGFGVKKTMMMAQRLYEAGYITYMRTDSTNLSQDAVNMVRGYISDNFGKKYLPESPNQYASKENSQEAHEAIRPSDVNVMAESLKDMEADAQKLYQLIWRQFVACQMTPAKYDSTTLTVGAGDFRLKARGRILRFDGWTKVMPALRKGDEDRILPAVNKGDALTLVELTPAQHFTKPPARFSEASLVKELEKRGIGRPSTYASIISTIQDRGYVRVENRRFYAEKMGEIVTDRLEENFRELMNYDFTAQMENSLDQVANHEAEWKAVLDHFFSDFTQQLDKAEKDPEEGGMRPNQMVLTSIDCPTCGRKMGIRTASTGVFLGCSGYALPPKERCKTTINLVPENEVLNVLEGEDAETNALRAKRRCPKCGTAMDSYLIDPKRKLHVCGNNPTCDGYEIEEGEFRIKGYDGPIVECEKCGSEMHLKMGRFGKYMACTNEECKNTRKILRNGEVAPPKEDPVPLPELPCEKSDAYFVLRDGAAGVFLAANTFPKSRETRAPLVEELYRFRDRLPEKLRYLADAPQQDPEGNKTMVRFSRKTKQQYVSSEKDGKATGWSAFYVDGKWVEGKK

[4] = target: Protein arginine N-methyltransferase 1 (Homo sapiens) (UniProt Q99873); assay: Inhibition of PRMT1 (unknown origin) using plate-coated histone as substrate at 5 uM incubated for 90 mins in presence of 0.5 uM SAM by AlphaScreen assay relative to control
[5] = Aqueous solubility of compound at pH 7.4; format: physicochemical
[6] = target: Poly [ADP-ribose] polymerase tankyrase-2 (Homo sapiens) (UniProt Q9H2K2); assay: Inhibition of TNKS2 (unknown origin) using biotin-NAD+, NAD+ and sIDNA as substrate at 5 uM incubated for 1 hr by ELISA relative to control
[7] = tested on: HCT-116; assay: Induction of apoptosis in human HCT116 cells incubated for 24 hrs by annexin V-FITC and propidium iodide staining based flow cytometry; format: functional, cell-based
[8] = target: DNA topoisomerase 2-alpha (Homo sapiens) (UniProt P11388); assay: Inhibition of human Top2alpha assessed as decrease in relaxation of supercoiled pBR322 plasmid DNA at 100 uM using supercoiled pBR322 plasmid DNA as substrate incubated for 30 mins by agarose gel electrophoresis analysis
[9] = target: DNMT3A2/3L complex (Homo sapiens) (UniProt Q9Y6K1+Q9UJW3); assay: Inhibition of DNMT3a/3L (unknown origin) using poly(dIdC) as substrate at 5 uM incubated for 3 hrs in presence of 20 uM SAM by fluorescence analysis; format: protein-complex assay
[10] = Antiproliferative activity against human MV-3 cells assessed as reduction in cell viability incubated for 72 hrs by CCK8 assay; format: functional, cell-based; details: MV-3, 72 h
[11] = organism: Homo sapiens; assay: Inhibition of PDE4A1A (unknown origin) using FAM-cAMP as substrate at 5 uM incubated for 1 hr by fluorescence polarization assay relative to control
[12] = tested on: HCT-116; assay: Cell cycle arrest in human HCT116 cells assessed as accumulation in G1 phase at 4 nM incubated for 24 hrs by propidium iodide staining based flow cytometry (reference value: 45.18 %); format: functional
[13] = target: Histone deacetylase 3/Nuclear receptor corepressor 2 (HDAC3/NCoR2) (Homo sapiens) (UniProt O15379+Q9Y618); assay: Inhibition of C-terminal His-tagged recombinant human HDAC3 (1 to 428 residues)/N-terminal GST-tagged recombinat human NCoR2 (395 to 489 residues) co-expressed in baculovirus infected Sf9 cells using histone peptide 3 as substrate at 5 uM incubated for 30 mins by fluorescence analysis
[14] = target: Epidermal growth factor receptor (Homo sapiens) (UniProt P00533); assay: Inhibition of EGFR (unknown origin) using poly (Glu, Tyr) as substrate at 5 uM incubated for 40 mins in presence of 10 uM ATP by kiase-Glo luminescence assay relative to control
[15] = tested on: K562; assay: Antiproliferative activity against human K562 cells assessed as reduction in cell viability incubated for 72 hrs by CCK8 assay; format: functional, cell-based; details: K562, 72 h
[16] = target: NAD-dependent protein deacetylase sirtuin-1 (Homo sapiens) (UniProt Q96EB6); assay: Inhibition of N-terminal His tagged recombinant human SIRT1 (193 to end residues) expressed in baculovirus infected Sf9 cells using HDAC substrate 1 as substrate at 5 uM incubated for 30 mins by fluorescence based analysis relative to control
NAD-dependent protein deacetylase sirtuin-1 (Homo sapiens), sequence (Q96EB6 whole entry): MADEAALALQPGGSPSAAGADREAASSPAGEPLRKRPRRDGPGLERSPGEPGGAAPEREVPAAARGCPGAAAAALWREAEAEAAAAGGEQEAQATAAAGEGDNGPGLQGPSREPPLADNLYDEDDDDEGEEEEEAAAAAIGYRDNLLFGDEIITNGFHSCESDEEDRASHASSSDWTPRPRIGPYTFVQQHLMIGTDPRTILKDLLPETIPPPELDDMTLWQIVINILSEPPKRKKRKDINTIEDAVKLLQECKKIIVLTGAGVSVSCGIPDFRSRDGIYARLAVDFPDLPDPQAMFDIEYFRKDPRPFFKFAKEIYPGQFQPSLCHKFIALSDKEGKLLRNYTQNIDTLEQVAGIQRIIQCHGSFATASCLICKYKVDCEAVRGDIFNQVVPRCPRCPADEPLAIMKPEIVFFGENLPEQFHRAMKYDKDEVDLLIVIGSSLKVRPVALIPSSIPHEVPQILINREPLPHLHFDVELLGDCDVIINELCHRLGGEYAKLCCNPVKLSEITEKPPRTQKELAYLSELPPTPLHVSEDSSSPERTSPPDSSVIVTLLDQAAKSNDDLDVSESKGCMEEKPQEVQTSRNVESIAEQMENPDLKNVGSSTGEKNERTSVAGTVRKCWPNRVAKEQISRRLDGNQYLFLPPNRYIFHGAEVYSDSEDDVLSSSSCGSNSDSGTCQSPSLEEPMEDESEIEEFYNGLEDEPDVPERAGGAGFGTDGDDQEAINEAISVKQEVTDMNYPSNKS

Poly [ADP-ribose] polymerase tankyrase-2 (Homo sapiens), sequence (Q9H2K2 whole entry): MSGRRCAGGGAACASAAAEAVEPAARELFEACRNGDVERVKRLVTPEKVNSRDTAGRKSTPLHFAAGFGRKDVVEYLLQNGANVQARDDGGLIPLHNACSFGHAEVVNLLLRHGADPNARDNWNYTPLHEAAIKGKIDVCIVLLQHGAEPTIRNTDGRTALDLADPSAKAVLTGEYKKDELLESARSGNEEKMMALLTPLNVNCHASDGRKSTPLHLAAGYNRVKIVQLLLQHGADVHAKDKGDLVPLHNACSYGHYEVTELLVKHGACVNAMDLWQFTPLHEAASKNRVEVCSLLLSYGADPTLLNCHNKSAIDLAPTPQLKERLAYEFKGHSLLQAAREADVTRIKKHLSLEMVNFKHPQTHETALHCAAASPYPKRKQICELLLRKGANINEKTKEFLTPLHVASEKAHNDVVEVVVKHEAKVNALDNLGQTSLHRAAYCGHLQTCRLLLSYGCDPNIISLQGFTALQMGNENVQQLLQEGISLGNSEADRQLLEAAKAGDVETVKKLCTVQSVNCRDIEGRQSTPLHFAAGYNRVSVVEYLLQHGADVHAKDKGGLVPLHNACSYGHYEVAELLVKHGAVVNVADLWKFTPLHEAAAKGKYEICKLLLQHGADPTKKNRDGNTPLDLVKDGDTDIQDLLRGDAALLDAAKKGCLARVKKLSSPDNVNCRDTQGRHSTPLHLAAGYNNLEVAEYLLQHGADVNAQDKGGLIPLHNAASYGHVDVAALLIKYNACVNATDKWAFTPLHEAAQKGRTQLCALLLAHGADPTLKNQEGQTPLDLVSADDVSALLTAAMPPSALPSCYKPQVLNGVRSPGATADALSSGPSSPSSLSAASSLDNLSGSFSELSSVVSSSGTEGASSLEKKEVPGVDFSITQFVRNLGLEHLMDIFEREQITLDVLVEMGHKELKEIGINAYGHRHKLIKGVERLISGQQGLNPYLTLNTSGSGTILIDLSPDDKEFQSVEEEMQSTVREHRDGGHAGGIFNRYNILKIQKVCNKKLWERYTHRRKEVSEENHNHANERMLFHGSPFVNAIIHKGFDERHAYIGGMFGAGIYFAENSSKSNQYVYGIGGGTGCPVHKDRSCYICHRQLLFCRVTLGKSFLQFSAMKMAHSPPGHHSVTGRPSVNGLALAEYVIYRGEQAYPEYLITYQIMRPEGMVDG
Epidermal growth factor receptor (Homo sapiens), sequence (P00533 whole entry): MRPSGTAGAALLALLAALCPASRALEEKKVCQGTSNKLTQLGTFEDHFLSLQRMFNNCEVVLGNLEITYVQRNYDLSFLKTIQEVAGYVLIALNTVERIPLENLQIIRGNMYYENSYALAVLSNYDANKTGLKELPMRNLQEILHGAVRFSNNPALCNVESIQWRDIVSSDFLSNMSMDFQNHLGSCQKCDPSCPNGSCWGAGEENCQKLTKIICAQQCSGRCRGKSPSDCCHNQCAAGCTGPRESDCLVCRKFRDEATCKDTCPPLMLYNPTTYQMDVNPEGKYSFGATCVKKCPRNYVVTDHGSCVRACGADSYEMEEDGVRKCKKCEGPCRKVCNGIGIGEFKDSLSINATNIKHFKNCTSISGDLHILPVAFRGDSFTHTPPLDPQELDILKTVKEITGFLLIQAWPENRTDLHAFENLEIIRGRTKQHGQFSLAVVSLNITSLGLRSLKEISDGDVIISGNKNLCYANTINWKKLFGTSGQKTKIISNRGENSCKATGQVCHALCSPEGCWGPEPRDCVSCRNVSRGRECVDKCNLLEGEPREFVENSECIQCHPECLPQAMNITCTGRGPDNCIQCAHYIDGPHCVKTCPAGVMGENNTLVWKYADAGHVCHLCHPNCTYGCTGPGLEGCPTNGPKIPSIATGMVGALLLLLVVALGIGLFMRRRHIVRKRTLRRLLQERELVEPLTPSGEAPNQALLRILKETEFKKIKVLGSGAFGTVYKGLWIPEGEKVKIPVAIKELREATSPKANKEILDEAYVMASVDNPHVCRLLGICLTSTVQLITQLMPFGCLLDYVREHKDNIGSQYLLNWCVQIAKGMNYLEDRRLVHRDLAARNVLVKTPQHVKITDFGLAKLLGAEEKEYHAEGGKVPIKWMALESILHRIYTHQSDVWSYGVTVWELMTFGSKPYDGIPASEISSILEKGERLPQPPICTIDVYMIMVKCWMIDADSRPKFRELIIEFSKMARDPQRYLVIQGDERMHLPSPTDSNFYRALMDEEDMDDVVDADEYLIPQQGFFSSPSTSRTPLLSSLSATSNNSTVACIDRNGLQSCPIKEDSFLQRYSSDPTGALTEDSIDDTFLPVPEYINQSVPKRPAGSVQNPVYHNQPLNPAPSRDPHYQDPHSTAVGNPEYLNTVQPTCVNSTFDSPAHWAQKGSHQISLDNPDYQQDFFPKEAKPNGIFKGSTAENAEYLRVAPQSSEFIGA
Protein arginine N-methyltransferase 1 (Homo sapiens), sequence (Q99873 whole entry, looked up): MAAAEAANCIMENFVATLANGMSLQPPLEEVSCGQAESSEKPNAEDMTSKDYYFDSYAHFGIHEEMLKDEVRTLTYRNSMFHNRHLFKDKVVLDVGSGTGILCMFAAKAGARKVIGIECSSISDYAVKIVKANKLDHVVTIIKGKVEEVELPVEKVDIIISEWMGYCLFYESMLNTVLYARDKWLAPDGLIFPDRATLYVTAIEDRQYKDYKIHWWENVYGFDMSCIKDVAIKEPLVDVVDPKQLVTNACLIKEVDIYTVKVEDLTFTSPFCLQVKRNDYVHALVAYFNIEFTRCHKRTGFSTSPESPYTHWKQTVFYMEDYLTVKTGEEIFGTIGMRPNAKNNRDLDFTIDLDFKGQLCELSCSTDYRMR
Histone-lysine N-methyltransferase EHMT2 (Homo sapiens), sequence (Q96KQ7 whole entry, the tested form may be a part): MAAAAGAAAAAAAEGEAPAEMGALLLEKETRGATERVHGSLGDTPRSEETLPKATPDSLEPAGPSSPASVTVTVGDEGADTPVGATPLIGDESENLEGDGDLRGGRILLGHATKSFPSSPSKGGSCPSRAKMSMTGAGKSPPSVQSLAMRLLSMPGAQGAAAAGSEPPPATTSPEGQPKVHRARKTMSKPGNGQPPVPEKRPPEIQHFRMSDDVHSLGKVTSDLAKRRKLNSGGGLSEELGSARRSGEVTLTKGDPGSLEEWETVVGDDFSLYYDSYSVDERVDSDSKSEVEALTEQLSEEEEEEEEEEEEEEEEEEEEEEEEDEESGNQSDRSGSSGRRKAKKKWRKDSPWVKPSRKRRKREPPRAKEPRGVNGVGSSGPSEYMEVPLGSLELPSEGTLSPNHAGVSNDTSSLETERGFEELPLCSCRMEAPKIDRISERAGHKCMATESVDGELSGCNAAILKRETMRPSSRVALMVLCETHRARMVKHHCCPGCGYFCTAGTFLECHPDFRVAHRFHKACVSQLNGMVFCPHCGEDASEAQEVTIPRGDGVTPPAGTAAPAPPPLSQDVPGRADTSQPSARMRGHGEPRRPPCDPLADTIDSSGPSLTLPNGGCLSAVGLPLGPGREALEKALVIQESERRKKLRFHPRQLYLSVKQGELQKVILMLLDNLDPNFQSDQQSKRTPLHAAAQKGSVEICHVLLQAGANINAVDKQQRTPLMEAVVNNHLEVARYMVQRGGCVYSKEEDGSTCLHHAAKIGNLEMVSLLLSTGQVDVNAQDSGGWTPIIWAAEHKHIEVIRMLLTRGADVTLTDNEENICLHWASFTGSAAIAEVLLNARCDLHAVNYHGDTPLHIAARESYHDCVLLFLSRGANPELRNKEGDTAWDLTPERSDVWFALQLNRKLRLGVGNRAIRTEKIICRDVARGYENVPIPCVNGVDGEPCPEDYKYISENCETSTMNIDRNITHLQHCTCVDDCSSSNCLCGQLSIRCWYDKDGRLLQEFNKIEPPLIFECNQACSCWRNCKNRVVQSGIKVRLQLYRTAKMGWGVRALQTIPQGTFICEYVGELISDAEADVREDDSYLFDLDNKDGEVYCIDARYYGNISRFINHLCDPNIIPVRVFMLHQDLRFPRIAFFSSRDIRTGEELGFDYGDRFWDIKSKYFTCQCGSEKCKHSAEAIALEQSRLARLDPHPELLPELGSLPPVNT

With `COc1ccc2c(c1)cc1n2CCN2C(=O)c3cc(F)ccc3N(C)C12` (stereo unspecified) the inhibition [1] was under 20%, the inhibition [2] was under 20% and the inhibition [3] was “Active”. It also gave an inhibition [4] of under 20%, a solubility [5] of 1.5 µg/mL (≈ 4.27 µM) and an inhibition [6] of under 20%. For the same molecule, the Activity [7] was “Dose-dependent effect”, the inhibition [8] was “inactive” and the inhibition [9] was under 20%. It also gave an IC50 [10] of 400 nM, an inhibition [11] of under 20% and an Activity [12] of 43.01%. It also gave an inhibition [13] of under 20%, an inhibition [14] of under 20% and an IC50 [15] of under 3 nM. It also gave an inhibition [16] of under 20%.
